Experimental data reported in patent US20150352108A1, “AMINO-PYRIMIDINE COMPOUNDS AS INHIBITORS OF TBK1 AND/OR IKK EPSILON” (Alzheimer's Institute of America, priority 2009, published 2015).
Where two headings read alike, the source gives them in different places.

Experiments:
[1] = test system: IKKε-mediated phosphorylation of IRF3; test: In-situ phosphorylation of IRF3 (pIRF3 Ser396 ELISA) in HEK293T cells cotransfected with IRF3 and IKKε; format: cell-based; details: Homo sapiens, HEK-293T
In short: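 Cells for the IRF7 Western blots carried IRF7 and TBK1 plasmids, were seeded at 150,000/well, exposed to compound overnight and probed for pSer477/Ser479 IRF7. The ELISA readout used IRF3 + IKKε-cotransfected HEK293T at 20,000/well with 20 h treatment, quantifying pSer396 IRF3 relative to DMSO, plus a parallel CellTiter-Glo viability check.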

TBK1 = target: T1, TBK1 (Homo sapiens, UniProt Q9UHD2); test: In-vitro TBK1 kinase assay ([γ33]ATP filter-plate); format: biochemical
T1 construct: His-tag; made in house; host or cells: Sf9 insect cells
T1 sequence (Q9UHD2 1-729): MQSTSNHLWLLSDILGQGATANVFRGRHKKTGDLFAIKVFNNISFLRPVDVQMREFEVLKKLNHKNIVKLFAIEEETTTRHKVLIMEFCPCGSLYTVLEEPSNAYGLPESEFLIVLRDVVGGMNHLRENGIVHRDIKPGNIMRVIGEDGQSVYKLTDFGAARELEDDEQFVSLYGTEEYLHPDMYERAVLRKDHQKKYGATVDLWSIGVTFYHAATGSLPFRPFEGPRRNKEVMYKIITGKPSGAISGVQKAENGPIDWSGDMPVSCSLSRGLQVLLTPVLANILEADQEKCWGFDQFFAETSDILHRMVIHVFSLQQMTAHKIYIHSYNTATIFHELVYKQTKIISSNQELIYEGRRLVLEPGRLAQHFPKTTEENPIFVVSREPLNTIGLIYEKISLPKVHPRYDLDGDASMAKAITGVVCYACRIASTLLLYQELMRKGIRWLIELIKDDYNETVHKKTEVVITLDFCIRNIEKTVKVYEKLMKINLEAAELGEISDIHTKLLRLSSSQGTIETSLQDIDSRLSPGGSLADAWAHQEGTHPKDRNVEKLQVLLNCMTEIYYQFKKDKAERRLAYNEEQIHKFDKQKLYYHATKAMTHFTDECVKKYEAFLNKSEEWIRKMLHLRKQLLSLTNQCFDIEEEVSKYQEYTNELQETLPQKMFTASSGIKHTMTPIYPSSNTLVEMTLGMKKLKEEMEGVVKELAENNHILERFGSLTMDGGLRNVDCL
In short: (§1)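 Phosphorylation of casein or myelin basic protein was counted by P-81 filter capture after 30-45 min reactions stopped with phosphoric acid, with counts normalized to DMSO after background subtraction. ATP was twice Km: 60 μM for TBK1 and 32 μM for IKKε, plus [γ33]ATP. Sf9-expressed His-tag enzymes were used at normal/sensitized levels of 0.1/0.02 μg/ml (TBK1) and 0.1/0.015 μg/ml (IKKε).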

IKKε = target: T2, IKKε (Homo sapiens, UniProt Q14164); test: In-vitro IKKε kinase assay ([γ33]ATP filter-plate); format: biochemical
T2 construct: His-tag; made in house; host or cells: Sf9 insect cells
T2 sequence (Q14164 1-716): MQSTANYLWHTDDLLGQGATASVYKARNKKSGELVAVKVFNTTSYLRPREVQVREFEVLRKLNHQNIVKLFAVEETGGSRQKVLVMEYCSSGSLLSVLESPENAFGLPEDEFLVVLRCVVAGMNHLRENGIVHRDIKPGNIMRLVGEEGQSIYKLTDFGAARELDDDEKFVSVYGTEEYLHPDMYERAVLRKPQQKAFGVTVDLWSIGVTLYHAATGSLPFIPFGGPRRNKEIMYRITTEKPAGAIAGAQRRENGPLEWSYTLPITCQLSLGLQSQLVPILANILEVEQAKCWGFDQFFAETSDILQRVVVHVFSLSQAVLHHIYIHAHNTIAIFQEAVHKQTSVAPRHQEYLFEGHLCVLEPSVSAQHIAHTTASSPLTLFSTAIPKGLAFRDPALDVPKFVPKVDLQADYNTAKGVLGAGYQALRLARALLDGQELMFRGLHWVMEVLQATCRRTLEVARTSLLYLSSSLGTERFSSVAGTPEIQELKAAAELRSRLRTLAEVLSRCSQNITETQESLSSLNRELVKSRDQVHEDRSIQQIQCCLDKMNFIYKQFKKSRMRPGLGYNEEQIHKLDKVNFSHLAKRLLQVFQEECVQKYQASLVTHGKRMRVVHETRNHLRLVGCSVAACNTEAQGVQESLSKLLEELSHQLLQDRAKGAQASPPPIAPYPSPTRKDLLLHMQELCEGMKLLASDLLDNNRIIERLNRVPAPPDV
In short: as §1

[2] = HEK293T cells, 20 hours, text bins, read-out: IC50 for inhibition of the in-situ IKKε-mediated phosphorylation of IRF3
[3] = text bins, read-out: IC50 for inhibition of the kinase activity of TBK1
[4] = text bins, read-out: IC50 for inhibition of the kinase activity of IKKε
[5] = HEK293T cells in culture, Table 3, read-out: pIRF3 ELISA IC50

Row | Structure (SMILES) | IC50 [1, 2] [nM] | IC50 (TBK1; [3]) [nM] | IC50 (IKKε; [4]) [nM] | IC50 [1, 5] [nM] | IC50 (TBK1; Table 3, read-out: TBK1 IC50) [nM] | IC50 (IKKε; Table 3, read-out: IKKε IC50) [nM]
1 | N#Cc1cc(-c2ccnc(Nc3ccc(CNC(=O)CO)cc3)n2)ccc1OC1CCOCC1 [compound 495, N-[4-({4-[3-cyano-4-(tetrahydro-2H-pyran-4-yloxy)phenyl]pyrimidin-2-yl}amino)benzyl]-2-hydroxyacetamide] | < 100 | < 10 | < 5 |  |  | 
2 | CN(C)C(=O)Nc1cccc(Nc2nccc(-c3ccc(OC4CCOCC4)c(C#N)c3)n2)c1 [compound 631, 3-[3-({4-[3-Cyano-4-(tetrahydro-2H-pyran-4-yloxy)phenyl]pyrimidin-2-yl}amino)phenyl]-1,1-dimethylurea] | < 100 | < 10 | < 5 | 31.9 | 1.3 | 0.8
3 | CC1CC1C(=O)Nc1ccc(-c2ccnc(Nc3ccc(N4CCOCC4)cc3)n2)cc1C#N (centres unmarked) [compound 415, N-[2-cyano-4-(2-{[4-(morpholin-4-yl)phenyl]amino}pyrimidin-4-yl)phenyl]-2-methylcyclopropane-carboxamide] | < 100 | < 10 | < 5 |  |  | 
4 | N#Cc1cc(-c2ccnc(Nc3cccc(CN4CCC(O)C4)c3)n2)ccc1OC1CCOCC1 (centres unmarked) [compound 561, 5-[2-({3-[(3-Hydroxypyrrolidin-1-yl)methyl]phenyl}amino)pyrimidin-4-yl]-2-(tetrahydro-2H-pyran-4-yloxy)benzonitrile] | < 100 | < 10 | < 5 | 56 | 0.7 | 0.4
5 | CC(C)N1CCN(CCOc2cc(Nc3nccc(-c4ccc(OC5CCOCC5)c(C#N)c4)n3)ccc2F)CC1 [compound 650, 5-{2-[(4-Fluoro-3-{2-[4-(propan-2-yl)piperazin-1-yl]ethoxy}phenyl)amino]pyrimidin-4-yl}-2-(tetrahydro-2H-pyran-4-yloxy)benzonitrile] | < 100 | < 10 | < 5 |  |  | 
6 | COc1cc(Nc2nccc(-c3ccc(OC4CCOCC4)c(C#N)c3)n2)ccc1CN1CCN(CCO)CC1 [compound 477, 5-{2-[(4-{[4-(2-Hydroxyethyl)piperazin-1-yl]methyl}-3-methoxyphenyl)amino]pyrimidin-4-yl}-2-(tetrahydro-2H-pyran-4-yloxy)benzonitrile] | < 100 | 10 to 100 | < 5 |  |  | 
7 | N#Cc1cc(-c2ccnc(Nc3ccc(CS(=O)(=O)N4CCN(CCO)CC4)cc3)n2)ccc1OC1CCOCC1 [compound 406, 5-(2-{[4-({[4-(2-Hydroxyethyl)piperazin-1-yl]sulfonyl}methyl)phenyl]amino}pyrimidin-4-yl)-2-(tetrahydro-2H-pyran-4-yloxy)benzonitrile] | < 100 | < 10 | < 5 |  |  | 
8 | COc1cc(Nc2nccc(-c3ccc(OC4CCOCC4)c(C#N)c3)n2)ccc1CN1CC(O)C1 [compound 483, 5-[2-({4-[(3-Hydroxyazetidin-1-yl)methyl]-3-methoxyphenyl}amino)pyrimidin-4-yl]-2-(tetrahydro-2H-pyran-4-yloxy)benzonitrile] | < 100 | < 10 | 5 to 50 |  |  | 
9 | CCOC1CN(C(=O)c2ccc(Nc3nccc(-c4ccc(OC5CCOCC5)c(C#N)c4)n3)cc2OC)C1 [compound 599, 5-[2-({4-[(3-Ethoxyazetidin-1-yl)carbonyl]-3-methoxyphenyl}amino)pyrimidin-4-yl]-2-(tetrahydro-2H-pyran-4-yloxy)benzonitrile] | < 100 | < 10 | < 5 |  |  | 
10 | N#Cc1cc(-c2ccnc(Nc3cccc(CS(=O)(=O)NCCO)c3)n2)ccc1OC1CCOCC1 [compound 619, 1-[3-({4-[3-Cyano-4-(tetrahydro-2H-pyran-4-yloxy)phenyl]pyrimidin-2-yl}amino)phenyl]-N-(2-hydroxyethyl) methanesulfonamide] | 250 to 500 | < 10 | < 5 | 287 | 0.2 | 1.2
11 | N#Cc1cc(-c2ccnc(Nc3ccc(N4CCOCC4)cc3)n2)ccc1OC1CCN(C=O)CC1 [Example 242, 2-[(1-formylpiperidin-4-yl)oxy]-5-(2-{[4-(morpholin-4-yl)phenyl]amino}pyrimidin-4-yl)benzonitrile] | 250 to 500 | < 10 | < 5 |  |  | 
12 | COc1cc(Nc2nccc(-c3ccc(OC4CCOCC4)c(C#N)c3)n2)ccc1OCCOCCNS(C)(=O)=O [Example 22] | < 100 | < 10 | < 5 |  |  | 
13 | COc1cc(Nc2nccc(-c3ccc(OC4CCOCC4)c(C#N)c3)n2)ccc1CN1CCN(C)CC1 [compound 479, 5-[2-({3-Methoxy-4-[(4-methylpiperazin-1-yl)methyl]phenyl}amino)pyrimidin-4-yl]-2-(tetrahydro-2H-pyran-4-yloxy)benzonitrile] | < 100 | < 10 | < 5 |  |  | 
14 | COc1cc(Nc2nccc(-c3ccc(OC4CCOCC4)c(C#N)c3)n2)ccc1S(=O)(=O)N1CCC(N(C)C)C1 (centres unmarked) [compound 400, 5-{2-[(4-{[3-(dimethylamino)pyrrolidin-1-yl]sulfonyl}-3-methoxyphenyl)amino]pyrimidin-4-yl}-2-(tetrahydro-2H-pyran-4-yloxy)benzonitrile] | < 100 | < 10 | < 5 |  |  | 
15 | COc1cc(Nc2nccc(-c3ccc(OC4CCOCC4)c(C#N)c3)n2)ccc1OCCCS(=O)(=O)N1CCN(C)CC1 [Example 25, 5-{2-[(3-methoxy-4-{3-[(4-methylpiperazin-1-yl)sulfonyl]propoxy}phenyl)amino]pyrimidin-4-yl}-2-(tetrahydro-2H-pyran-4-yloxy)benzonitrile] | 100 to 250 | < 10 | < 5 |  |  | 
16 | CC(C)COc1ccc(-c2ccnc(Nc3ccc(N4CCOCC4)cc3)n2)cc1C#N [Example 264, 2-(2-Methylpropoxy)-5-(2-{[4-(morpholin-4-yl)phenyl]amino}pyrimidin-4-yl)benzonitrile] |  | < 10 | < 5 | 654 | 0.2 | 0.6
17 | COc1cc(Nc2nccc(-c3ccc(OC4CCOCC4)c(C#N)c3)n2)ccc1C(=O)NCCCN(C)C [Example 103, 4-({4-[3-cyano-4-(tetrahydro-2H-pyran-4-yloxy)phenyl]pyrimidin-2-yl}amino)-N-[3-(dimethylamino)propyl]-2-methoxybenzamide] | 250 to 500 | < 10 | < 5 |  |  | 
18 | N#Cc1cc(-c2ccnc(Nc3cccc(NCCN4CCOCC4)c3)n2)ccc1OC1CCOCC1 [compound 657] | < 100 | < 10 | < 5 | 97.6 | 1.3 | 1.3
19 | Cc1cc(Nc2nccc(-c3ccc(OC4CCOCC4)c(C#N)c3)n2)ccc1N1CCOCC1 [Example 18, 5-(2-{[3-methyl-4-(morpholin-4-yl)phenyl]amino}pyrimidin-4-yl)-2-(tetrahydro-2H-pyran-4-yloxy)benzonitrile] | 100 to 250 | < 10 | < 5 |  |  | 
